Results on 56 compounds are retold here after patent publication US9278968B2, “Imidazopyridine compounds” (ASTELLAS PHARMA INC., priority 2012, dated 2016).

pEC50: −log10 of the molar value.

For the experiment, the target named is human purified sGC (heterodimer of sGCα1 and sGCβ1) (Homo sapiens (Human), UniProt Q02108+Q02153). Description: sGC activation test (cGMP produced, HTRF). The settings on record: maximum activity of Preparation Example 200 compound (maximum 100 μM) taken as 100%; with SNP; read-out: EC50 (concentration giving 50% of maximum activity). The class given is biochemical. Here is the method: The activity of sGC was evaluated by measuring the amount of cGMP produced by human purified sGC.
Chain of human purified sGC (heterodimer of sGCα1 and sGCβ1) (Q02108 whole entry, the tested form may be a part): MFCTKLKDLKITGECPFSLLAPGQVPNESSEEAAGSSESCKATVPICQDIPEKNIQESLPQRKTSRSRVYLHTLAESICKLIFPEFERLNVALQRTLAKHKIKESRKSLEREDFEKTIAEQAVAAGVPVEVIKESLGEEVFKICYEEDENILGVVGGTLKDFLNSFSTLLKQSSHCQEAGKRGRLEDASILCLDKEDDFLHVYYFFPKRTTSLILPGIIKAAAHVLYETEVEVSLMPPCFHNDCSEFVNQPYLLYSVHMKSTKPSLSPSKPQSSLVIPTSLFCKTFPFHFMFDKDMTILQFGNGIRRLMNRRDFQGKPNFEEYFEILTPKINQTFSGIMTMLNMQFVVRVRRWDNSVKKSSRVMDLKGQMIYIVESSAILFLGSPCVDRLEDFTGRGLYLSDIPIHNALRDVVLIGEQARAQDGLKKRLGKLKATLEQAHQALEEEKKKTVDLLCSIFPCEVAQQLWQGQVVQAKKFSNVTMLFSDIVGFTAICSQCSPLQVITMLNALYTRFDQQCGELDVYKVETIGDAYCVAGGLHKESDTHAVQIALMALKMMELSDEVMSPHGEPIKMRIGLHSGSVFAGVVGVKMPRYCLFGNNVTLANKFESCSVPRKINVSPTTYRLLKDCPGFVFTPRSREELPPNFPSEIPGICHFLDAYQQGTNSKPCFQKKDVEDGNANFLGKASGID
Chain of human purified sGC (heterodimer of sGCα1 and sGCβ1) (Q02153 whole entry, the tested form may be a part): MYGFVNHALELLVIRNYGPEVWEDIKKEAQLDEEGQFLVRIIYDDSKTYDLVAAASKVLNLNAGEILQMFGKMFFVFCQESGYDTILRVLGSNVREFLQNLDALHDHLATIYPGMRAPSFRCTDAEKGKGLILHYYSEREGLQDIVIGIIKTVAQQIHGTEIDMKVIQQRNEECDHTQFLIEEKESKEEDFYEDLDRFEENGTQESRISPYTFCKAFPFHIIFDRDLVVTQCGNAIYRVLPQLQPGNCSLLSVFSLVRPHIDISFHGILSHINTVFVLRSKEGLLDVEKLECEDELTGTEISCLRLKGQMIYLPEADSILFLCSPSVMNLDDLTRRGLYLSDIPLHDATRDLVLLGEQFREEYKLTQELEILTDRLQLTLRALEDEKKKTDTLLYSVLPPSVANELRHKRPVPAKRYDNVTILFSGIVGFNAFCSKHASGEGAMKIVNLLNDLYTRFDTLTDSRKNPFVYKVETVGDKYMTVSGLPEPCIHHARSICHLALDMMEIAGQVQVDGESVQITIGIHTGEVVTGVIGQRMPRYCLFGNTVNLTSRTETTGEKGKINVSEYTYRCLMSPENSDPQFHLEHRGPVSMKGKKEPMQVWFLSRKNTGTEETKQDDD
Using an sGCα 1 gene (NCBI accession No. BC028384.2) and an sGCβ1 gene (NCBI accession No. BC047620.1), an N-terminal FLAG tag-fused sGCα1 and an sGCβ1 expression baculovirus were prepared. These viruses were transfected into insect cells Sf9 (Cat. No. 11496-015, Gibco) to express a protein. From the cell lysates of the insect cells, heterodimers of the N-terminal FLAG tag-fused sGCα1 and sGCβ1 were purified with an M2 Affinity Gel (Sigma-Aldrich, Inc.) to obtain a human sGC.
An Example compound was dissolved in DMSO and diluted 20-fold with ultrapure water. 2 μL of the diluted Example compound solution (maximum concentration of 100 μM), 2 μL of a substrate solution [0.5 μM triethanolamine buffer solution, 0.03 μM dithiothreitol, 0.01 μM GTP, 0.04 μM MgCl2, and 0.03 μM sodium nitroprusside (SNP)], and 6 μL of a human enzyme suspension were added to 384-well plates (manufactured by Greiner Bio-One), and incubated at room temperature for one hour. The measurement of the amount of cGMP was carried out, using an HTRF reagent (Cisbio).
The sGC activation action of the Example compound was calculated as an Example compound concentration which gives 50% of a maximum activity (EC50), in which the maximum activity by the addition of a compound shown in Preparation Example 200, 8-(cyclohexylmethoxy)-N-[(1R)-2-hydroxy-1-phenylethyl]-2-methylimidazo[1,2-a]pyridine-3-carboxamide hydrochloride (maximum 100 μM), is taken as 100%. Further, the maximum activity of sGC with the addition of 8-(cyclohexylmethoxy)-N-[(1R)-2-hydroxy-1-phenylethyl]-2-methylimidazo[1,2-a]pyridine-3-carboxamide hydrochloride is 10-fold or more relative to the sGC activation without the addition of the compound, and it is recognized that the compound has a good sGC activating action. […] The test results of some Example compounds that are the compounds of the formula (I) of the present invention are shown below. Further, in Tables, Ex. represents Example number.
Background: TR-FRET usually uses a lanthanide donor and a delayed reading to cut background.
Consider `Cc1nc2c(OCc3c(F)cccc3F)cccn2c1C(=O)N[C@]1(c2ccccc2)CC[C@@H](O)[C@H]1O` (racemic) [Example 27], for which the pEC50 is 4.92.

For `Cc1nc2c(OCc3c(F)cccc3F)cccn2c1C(=O)N[C@]1(c2ccccc2)CC[C@H](O)[C@H]1O` (racemic) [Example 28], the pEC50 is 4.89.

With `Cc1nc2c(OCc3c(F)cccc3F)cccn2c1C(=O)NCc1cccnc1[C@@H](O)[C@@H](C)O` (racemic) [Example 89], the pEC50 was 4.96. In the case of `Cc1nc2c(OCc3c(F)cccc3F)cccn2c1C(=O)NCc1ccncc1[C@@H](O)[C@@H](C)O` (racemic) [Example 90], the pEC50 was 5.01. As to `Cc1nc2c(OCc3c(F)cccc3F)cccn2c1C(=O)N[C@@H](C)c1ccccc1[C@@H](O)CO` (stereo in doubt) [Example 59], the pEC50 is 5.72. As to `Cc1nc2c(OCC3CCCCC3)cccn2c1C(=O)N[C@@](C)(CO)c1cccc(C(=O)O)c1` [Example 3, 3-[(2R)-2-({ [8-(cyclohexylmethoxy)-2-methylimidazo[1,2-a]pyridin-3-yl]carbonyl}amino)-1-hydroxypropan-2-yl]benzoic acid], the pEC50 is 6.14. In the case of `Cc1nc2c(OCc3c(F)cccc3F)cccn2c1C(=O)NC(C)(CO)c1ccc(CO)cc1` (centres unmarked) [Example 4, 8-[(2,6-difluorobenzyl)oxy]-N-{1-hydroxy-2-[4-(hydroxymethyl)phenyl]propan-2-yl}-2-methylimidazo[1,2-a]pyridine-3-carboxamide], the pEC50 was 5.85. With `Cc1nc2c(OCc3c(F)cccc3F)cccn2c1C(=O)NCc1ccccc1C(O)CO` (centres unmarked) [Example 5, 8-[(2,6-difluorobenzyl)oxy]-N-[2-(1,2-dihydroxyethyl)benzyl]-2-methylimidazo[1,2-a]pyridine-3-carboxamide], the pEC50 is 5.19. The same measure for `Cc1nc2c(OCc3c(F)cccc3F)cccn2c1C(=O)N[C@@](C)(CO)c1cccc(C(N)=O)c1` [Example 12]: 6.11. For the compound `Cc1nc2c(OCC3CCCCC3)cccn2c1C(=O)N[C@@](C)(CO)c1cccc(C(N)=O)c1` [Example 13], the pEC50 was 6.08. As to `Cc1nc2c(OCc3c(F)cccc3F)cccn2c1C(=O)NC(C)(CO)c1ncccn1` (centres unmarked) [Example 14], the pEC50 is 5.36. Consider `Cc1nc2c(OCc3ccccc3F)cccn2c1C(=O)N[C@@](C)(CO)c1cccc(CO)c1` [Example 15], for which the pEC50 was 5.55. With `Cc1cnc([C@H](CO)NC(=O)c2c(C)nc3c(OCc4c(F)cccc4F)cccn23)s1` [Example 16], the pEC50 is 5.68.

As to `Cc1nc2c(OCc3c(F)cccc3F)cccn2c1C(=O)N[C@@](C)(CO)c1nc(CO)cs1` [Example 21], the pEC50 is 5.40. Consider `Cc1nc2c(OCc3ncccc3F)cccn2c1C(=O)N[C@@](C)(CO)c1ccccc1F` [Example 23], for which the pEC50 was 5.01.

As for `Cc1ncc([C@H](CO)NC(=O)c2c(C)nc3c(OCc4c(F)cccc4F)cccn23)s1` [Example 24], the pEC50 was 5.44. Take `Cc1nc2c(OCc3c(F)cccc3F)cccn2c1C(=O)N[C@@H](CO)c1nnn(C)n1` [Example 26]: the pEC50 was 4.62.

With `Cc1nc2c(OCC3CCCCC3)cccn2c1C(=O)N[C@@H](CO)c1nnnn1C` [Example 29], the pEC50 was 4.77. For the compound `Cc1nc2c(OCc3c(F)cccc3F)cccn2c1C(=O)NCc1ccccc1[C@H](O)[C@H](C)O` [Example 30], the pEC50 was 5.25. For the compound `Cc1nc2c(OCc3c(F)cccc3F)cccn2c1C(=O)NCc1ccccc1[C@@H](O)[C@H](C)O` [Example 32], the pEC50 is 5.09.

`Cc1nc2c(OCc3c(F)cccc3F)cccn2c1C(=O)NCc1ccccc1[C@H](O)[C@@H](C)O` [Example 33]: the pEC50 is 5.13. Next, `Cc1nc2c(OCC3CCCCC3)cccn2c1C(=O)N[C@@H](CO)c1nnn(C)n1` [Example 34]: 4.96; `Cc1nnc([C@H](CO)NC(=O)c2c(C)nc3c(OCc4c(F)cccc4F)cccn23)o1` [Example 42]: 4.48. The same measure for `Cc1nnc([C@H](CO)NC(=O)c2c(C)nc3c(OCC4CCCCC4)cccn23)o1` [Example 43]: 4.85; for `CCc1nnc([C@H](CO)NC(=O)c2c(C)nc3c(OCc4c(F)cccc4F)cccn23)o1` [Example 44]: 4.80. As for `CCc1nnc([C@H](CO)NC(=O)c2c(C)nc3c(OCC4CCCCC4)cccn23)o1` [Example 45], the pEC50 was 5.04. As to `Cc1nc2c(OCc3c(F)cccc3F)cccn2c1C(=O)N[C@@H](CO)c1nnc(C2CC2)o1` [Example 46], the pEC50 is 4.70. Consider `Cc1nc2c(OCC3CCCCC3)cccn2c1C(=O)N[C@@H](CO)c1nnc(C2CC2)o1` [Example 47], for which the pEC50 was 4.89.

As to `Cc1nc2c(OCc3c(F)cccc3F)cccn2c1C(=O)NC(C)(CO)c1cncnc1` (centres unmarked) [Example 48], the pEC50 was 5.57.

Take `Cc1nc2c(OCc3c(F)cccc3F)cccn2c1C(=O)NC(CO)c1cnn(C)c1` (centres unmarked) [Example 49]: the pEC50 is 4.60. On to `Cc1nc2c(OCc3c(F)cccc3F)cccn2c1C(=O)NC(C)(CO)c1cnn(C)c1` (centres unmarked) [Example 50], for which the pEC50 is 5.10. The same measure for `Cc1nc2c(OCc3ccccc3F)cccn2c1C(=O)NC(C)(CO)c1ccc(CO)cc1` (centres unmarked) [Example 51]: 4.92. In the case of `Cc1nc2c(OCc3c(F)cccc3F)cccn2c1C(=O)NC(CO)(CO)c1cccc(CO)c1` [Example 53], the pEC50 is 5.77. Next, `Cc1nc2c(OCc3c(F)cccc3F)cccn2c1C(=O)NC(CO)(CO)c1cccc(F)c1` [Example 55]: 5.70; `Cc1ccc(C(CO)(CO)NC(=O)c2c(C)nc3c(OCc4c(F)cccc4F)cccn23)nc1` [Example 56]: 5.07. With `Cc1nc2c(OCc3c(F)cccc3F)cccn2c1C(=O)NC(CO)(CO)c1ccc(F)cn1` [Example 57], the pEC50 is 5.43.

Consider `COc1ccc(C(CO)(CO)NC(=O)c2c(C)nc3c(OCc4c(F)cccc4F)cccn23)cn1` [Example 58], for which the pEC50 is 5.48. For `Cc1cnc(C(CO)(CO)NC(=O)c2c(C)nc3c(OCc4c(F)cccc4F)cccn23)o1` [Example 60], the pEC50 is 4.92. For `Cc1nc2c(OCc3cccc(F)c3F)cccn2c1C(=O)NC(CO)(CO)c1ccc(F)cc1` [Example 61], the pEC50 was 5.19. For the compound `Cc1ccnc(C(CO)(CO)NC(=O)c2c(C)nc3c(OCc4c(F)cccc4F)cccn23)c1` [Example 62], the pEC50 is 5.19. Turning to `Cc1nc2c(OCc3c(F)cccc3F)cccn2c1C(=O)NC(CO)(CO)c1nnn(C)n1` [Example 64], the pEC50 is 4.52. `Cc1nc2c(OCC3CCCCC3)cccn2c1C(=O)NC(CO)(CO)c1nnn(C)n1` [Example 66]: the pEC50 was 4.80. With `Cc1nc2c(OCC3CCCCC3)cccn2c1C(=O)N[C@]1(c2ccccn2)C[C@@H](O)[C@@H](O)C1` [Example 68], the pEC50 is 4.85. `Cc1nc2c(OCc3c(F)cccc3F)cccn2c1C(=O)NC(CO)(CO)c1cnn(C)c1` [Example 71]: the pEC50 is 4.68.

As to `Cc1nc2c(OCC3CCCCC3)cccn2c1C(=O)NC(C)(CO)c1nnn(C)n1` (centres unmarked) [Example 73a], the pEC50 is 5.19. Regarding `COCCn1nnc(C(C)(CO)NC(=O)c2c(C)nc3c(OCc4c(F)cccc4F)cccn23)n1` (centres unmarked) [Example 74], the pEC50 was 4.92. Turning to `Cc1nc2c(OCc3c(F)cccc3F)cccn2c1C(=O)NC(C)(CO)c1nnn(CCO)n1` (centres unmarked) [Example 75], the pEC50 is 5.04.

Regarding `Cc1ncc(C(CO)(CO)NC(=O)c2c(C)nc3c(OCc4c(F)cccc4F)cccn23)s1` [Example 78], the pEC50 was 5.29. Next, `Cc1nc2c(OCc3c(F)cccc3F)cccn2c1C(=O)NC(C)(C)c1cccc(C(N)=O)c1` [Example 80]: 5.15; `Cc1nc2c(OCc3cccc(F)c3F)cccn2c1C(=O)NC(C)(CO)c1nnn(C)n1` (centres unmarked) [Example 82]: 4.68. Next, `Cc1nnc(C(C)(CO)NC(=O)c2c(C)nc3c(OCC4CCCCC4)cccn23)o1` (centres unmarked) [Example 84]: 5.15.

Take `[C-]#[N+]c1cccc([C@](C)(CO)NC(=O)c2c(C)nc3c(OCC4CCCCC4)cccn23)c1` [Example 85]: the pEC50 is 5.54.

As for `CCc1nnc(C(C)(CO)NC(=O)c2c(C)nc3c(OCC4CCCCC4)cccn23)o1` (centres unmarked) [Example 86], the pEC50 is 5.25. The same measure for `Cc1nc2c(OCc3c(F)cccc3F)cccn2c1C(=O)NC(C)(CO)c1nnc(C2CC2)o1` (centres unmarked) [Example 87]: 5.23; for `Cc1nc2c(OCC3CCCCC3)cccn2c1C(=O)NC(C)(CO)c1nnc(C2CC2)o1` (centres unmarked) [Example 88]: 5.28; for `Cc1nc2c(OCC3CCCCC3)cccn2c1C(=O)NC(C)(CO)c1nnc(C(F)(F)F)o1` (centres unmarked) [Example 92]: 5.85.
